Test results reported in publication PMC10779433, “Bidirectional Allosteric Coupling between PIP2 Binding and the Pore of the Oncochannel TRPV6” (International Journal of Molecular Sciences, 2024).
Residues, ends and D or L forms follow the SMILES beside them. *: point of attachment. Palmitoyl = CCCCCCCCCCCCCCCC(=O)*

Columns and labels:
[1] = test system: TRPV6 I575A; test: NFAT screen, TRPV6 I575A; format: cell-based, human; settings: HEK293 cells; 5 μM cis-22a, 2 h, vs DMSO
Description: (§1) N-terminally TagRFP-labeled human TRPV6 (725 aa) was kindly provided by R. Bhardwaj and M. Hediger (University of Bern, Bern, Switzerland). This variant is translated from the first ATG codon and thus deviates from the non-ATG-initiated protein which is expressed in vivo (accession number NM_018646.6) by lacking 40 amino acids of the very N-terminus. For N-terminal labeling with EYFP, TRPV6 was cloned into pEYFP-C1 (Clontech) via EcoRI and SacII restriction sites. […]
(§2) After incubation, cover slips were carefully rinsed with phenol red-free DMEM supplemented with the compound and dosage corresponding to the previous incubation, which was then also present during imaging. […] Subcellular NFAT localization of TRPV6 expressing cells was again monitored on an Axiovert 135 inverted microscope (Zeiss, Oberkochen, Germany), as described in more detail before. […] Images were analyzed using Matlab2018a, differentiating between three cell populations based on the ratio of CFP emission intensity originating from the nucleus and the cytosol, similar to Schober et al. (2019).

[2] = test system: TRPV6 G579A; test: NFAT screen, TRPV6 G579A; format: cell-based, human; settings: HEK293 cells; 5 μM cis-22a, 2 h; homogeneous localization preferred already without cis-22a
Description: as §1, §2

[3] = test system: TRPV6 R470A W583F; test: NFAT screen, TRPV6 R470A W583F; format: cell-based, human; settings: HEK293 cells; 5 μM cis-22a, 2 h
Description: as §1, §2

[4] = test system: TRPV6 G488R; settings: ref [62]; cited from earlier work
Excerpt: As mentioned before, the G488R mutation resides within the segment linking the fourth and fifth transmembrane domain of TRPV6. Importantly, different examples exist throughout the entire TRP superfamily, highlighting the importance of the corresponding protein section for a proper channel function, for instance, by serving as a binding site for different agonists or antagonists.

[5] = test system: TRPV6 D580K; test: Whole-cell patch clamp, TRPV6 D580K; format: cell-based, human; settings: HEK293 cells, 10 μM pal-PIP2 peptide, Figure 5C (substitution reduces the inhibition)
Excerpt: N-terminally TagRFP-labeled human TRPV6 (725 aa) was kindly provided by R. Bhardwaj and M. Hediger (University of Bern, Bern, Switzerland). This variant is translated from the first ATG codon and thus deviates from the non-ATG-initiated protein which is expressed in vivo (accession number NM_018646.6) by lacking 40 amino acids of the very N-terminus. For N-terminal labeling with EYFP, TRPV6 was cloned into pEYFP-C1 (Clontech) via EcoRI and SacII restriction sites. Mutations (F468A, R470A, F472A, K484A/Q, G488R, R492A/Q, I575A, G579A, D580A/K, H582A, W583A/F, H587A, R589A, W593A, R632A/Q, R470A, W583F) were introduced using the QuickChange XL site-directed mutagenesis kit (Stratagene, San Diego, CA, USA) and Pfu DNA Polymerase (Promega, Madison, WI, USA). pTagRFP-hTRPV6 I575A was kindly provided by the lab of M. Hediger (University of Bern, Bern, Switzerland). Forward and reverse primers for site-directed mutagenesis were synthesized by Eurofins genomics GmbH (Wien, Vienna, Austria). Intactness of the constructs in terms of sequence was confirmed by sequencing (Microsynth Austria GmbH, Wien, Vienna, Austria; Eurofins genomics GmbH, Wien, Vienna, Austria). […]
Electrophysiological experiments were performed at 20 °C to 24 °C in whole-cell recording configurations of the patch clamp technique. […] The liquid junction potential was determined as 12 mV; the voltages were not adjusted. […]

SMILES	change of nuclear NFAT localization [1]	change of nuclear NFAT localization [2]	NFAT localization patterns [3]	sensitivity to cis-22a (in words) [4]	inhibitory effect of pal-PIP2 peptide vs WT [5]
Cc1cccc(C2CCC(N3CCN(c4cccnc4)CC3)CC2)c1.O=C(O)C(F)(F)F (stereo not drawn) [cis-22a]	not significantly changed	further significant reduction in the proportion of cells showing nucleus-resident NFAT	unable to change localization patterns	largely insensitive	–
CCCCCCCCCCCCCCCC(=O)N[C@@H](Cc1c[nH]cn1)C(=O)N[C@@H](CCCNC(=N)N)C(=O)N[C@@H](CCC(N)=O)C(=O)N[C@@H](CCCCN)C(=O)N[C@@H](Cc1c[nH]cn1)C(=O)N[C@@H](Cc1ccccc1)C(=O)N[C@@H](CCC(=O)O)C(=O)N[C@@H](CCCCN)C(=O)N[C@@H](CCCNC(=N)N)C(=O)N[C@@H](CCCNC(=N)N)C(N)=O [pal-PIP2 peptide] (Palmitoyl-HRQKHFEKRR-NH2)	–	–	–	–	interfered with the inhibitory effect of the pal-PIP2 peptide
